From BindingDB's records for doi:10.1126/science.abf1611 (Sichuan University, 2021)
Several values for one entry are separate records, joined by “and”; a condition that tells them apart may be missing. Equal values may be shown once.

Columns and labels:
[1] = target: T1, Replicase polyprotein 1ab (Severe acute respiratory syndrome coronavirus 2, UniProt P0DTD1); assay: The enzymatic inhibition assay
Description: The enzymatic inhibition assay was carried out with a final concentration of 100 nM recombinant SARS-CoV-2 Mpro and 20 μM FRET substrate. […] The initial velocities were calculated from the first 1 min of each reaction curve. The IC50 values were calculated using a dose-response model in GraphPad Prism 8.0 software. All experiments were performed in triplicate, and the values are presented as mean ± standard deviation (SD).

[2] = target: T1, Replicase polyprotein 1ab
[3] = target: T1, Replicase polyprotein 1ab; assay: scanning fluorimetry assay of HPAEpiC cells
Description: The differential scanning fluorimetry (DSF) assay was carried out on a CFX96 real-time PCR Detection System (Bio-Rad). […] The Mpro protein (final concentration: 2 μM) was pre-incubated with 40 μM of compounds for 30 min. […] The melt temperature (Tm) was calculated by using a Boltzmann model in GraphPad Prism 8.0 software. The thermal shift (ΔTm) was calculated using the equation ΔTm=Tm(compound)-Tm(DMSO). All experiments were performed in triplicate, and the values are presented as mean ± SD. HPAEpiC cells are used.

| Structure (SMILES) | IC50 [1] | EC50 [2] [nM] | EC50 [3] [nM] |
| --- | --- | --- | --- |
| COc1ccc(OCC(=O)N2C[C@H]3[C@@H]([C@@H]2C(=O)N[C@H](C=O)C[C@@H]2CCNC2=O)C3(C)C)cc1F [MI-08] | 37 nM | – | – |
| O=C[C@H](C[C@@H]1CCNC1=O)NC(=O)[C@H]1[C@@H]2CCC[C@H]2CN1C(=O)c1cc2ccccc2[nH]1 [MI-16] | 153 nM | – | – |
| O=C[C@H](C[C@@H]1CCNC1=O)NC(=O)[C@H]1[C@@H]2CCC[C@H]2CN1C(=O)COc1ccc(Cl)cc1 [MI-28] | – | 42 | 2.2 |
| COc1ccc(/C=C/C(=O)N2C[C@@H]3CCC[C@H]3[C@@H]2C(=O)N[C@H](C=O)C[C@@H]2CCNC2=O)c(OC)c1 [MI-19] | 196 nM | – | – |
| COc1ccc(OC(C)C(=O)N2C[C@@H]3CCC[C@H]3[C@@H]2C(=O)N[C@H](C=O)C[C@@H]2CCNC2=O)cc1 (stereo partly specified) [MI-26] | 69 nM | – | – |
| CC1(C)[C@@H]2[C@H](C(=O)N[C@H](C=O)C[C@@H]3CCNC3=O)N(C(=O)COc3ccc(Cl)c(Br)c3)C[C@@H]21 [MI-10] | 51 nM | – | – |
| CC1(C)[C@@H]2[C@H](C(=O)N[C@H](C=O)C[C@@H]3CCNC3=O)N(C(=O)COc3ccc(F)c(F)c3)C[C@@H]21 [MI-05] | 13 nM | – | – |
| CNc1ccc(/C=C/C(=O)N2C[C@@H]3CCC[C@H]3[C@@H]2C(=O)N[C@H](C=O)C[C@@H]2CCNC2=O)cc1 [MI-20] | 375 nM | – | – |
| O=C[C@H](C[C@@H]1CCNC1=O)NC(=O)[C@H]1[C@@H]2CCC[C@H]2CN1C(=O)c1cc2ccccn2n1 [MI-17] | 299 nM | – | – |
| O=C[C@H](C[C@@H]1CCNC1=O)NC(=O)[C@H]1[C@@H]2CCC[C@H]2CN1C(=O)COc1ccc2c(c1)OCCO2 [MI-27] | 94 nM | – | – |
| CC1(C)[C@@H]2[C@H](C(=O)N[C@H](C=O)C[C@@H]3CCNC3=O)N(C(=O)c3ccc4ccccc4c3)C[C@@H]21 [MI-01] | 453 nM | – | – |
| O=C[C@H](C[C@@H]1CCNC1=O)NC(=O)[C@H]1[C@@H]2CCC[C@H]2CN1C(=O)COc1ccc(Cl)c(Cl)c1 [MI-31] | 30 nM | 62 | 0.4 |
| CC1(C)[C@@H]2[C@H](C(=O)N[C@H](C=O)C[C@@H]3CCNC3=O)N(C(=O)COc3cc(F)cc(F)c3)C[C@@H]21 [MI-04] | 19 nM | – | – |
| O=C[C@H](C[C@@H]1CCNC1=O)NC(=O)[C@H]1[C@@H]2CCC[C@H]2CN1C(=O)/C=C/c1ccccc1 [MI-18] | 526 nM | – | – |
| O=C[C@H](C[C@@H]1CCNC1=O)NC(=O)[C@H]1[C@@H]2CCC[C@H]2CN1C(=O)c1cccnc1 [MI-15] | 749 nM | – | – |
| Cc1cc(Cl)ccc1OCC(=O)N1C[C@@H]2CCC[C@H]2[C@@H]1C(=O)N[C@H](C=O)C[C@@H]1CCNC1=O [MI-32] | 20 nM | – | – |
| CN(C)c1ccc(CCC(=O)N2C[C@@H]3CCC[C@H]3[C@@H]2C(=O)N[C@H](C=O)C[C@@H]2CCNC2=O)cc1 [MI-24] | 378 nM | – | – |
| CC1(C)[C@@H]2[C@H](C(=O)N[C@H](C=O)C[C@@H]3CCNC3=O)N(C(=O)COc3ccc(Cl)c(Cl)c3)C[C@@H]21 [MI-13] | 12 nM | – | – |
| COc1ccc(OCC(=O)N2C[C@@H]3CCC[C@H]3[C@@H]2C(=O)N[C@H](C=O)C[C@@H]2CCNC2=O)cc1 [MI-25] | 36 nM | – | – |
| O=C[C@H](C[C@@H]1CCNC1=O)NC(=O)[C@H]1[C@@H]2CCC[C@H]2CN1C(=O)CCc1ccc(F)c(F)c1 [MI-22] | 17 nM | – | – |
| CC1(C)[C@@H]2[C@H](C(=O)N[C@H](C=O)C[C@@H]3CCNC3=O)N(C(=O)COc3ccc(C(F)(F)F)cc3)C[C@@H]21 [MI-07] | 43 nM | – | – |
| O=C[C@H](C[C@@H]1CCNC1=O)NC(=O)[C@H]1[C@@H]2CCC[C@H]2CN1C(=O)COc1ccc(Cl)cc1F [MI-29] | 35 nM | – | – |
| CC1(C)[C@@H]2[C@H](C(=O)N[C@H](C=O)C[C@@H]3CCNC3=O)N(C(=O)COc3ccc(Br)cc3Cl)C[C@@H]21 [MI-11] | 13 nM | – | – |
| COc1ccc(OCC(=O)N2C[C@H]3[C@@H]([C@@H]2C(=O)N[C@H](C=O)C[C@@H]2CCNC2=O)C3(C)C)cc1OC [MI-06] | 15 nM | – | – |
| CC1(C)[C@@H]2[C@H](C(=O)N[C@H](C=O)C[C@@H]3CCNC3=O)N(C(=O)COc3ccc(Cl)cc3Cl)C[C@@H]21 [MI-14] | 13 nM | 85 | 0.3 |
| CC1(C)[C@@H]2[C@H](C(=O)N[C@H](C=O)C[C@@H]3CCNC3=O)N(C(=O)COc3ccc(Cl)cc3)C[C@@H]21 [MI-12] | 19 nM | 97 | 7.3 |
| CC1(C)[C@@H]2[C@H](C(=O)N[C@H](C=O)C[C@@H]3CCNC3=O)N(C(=O)COc3ccc4ccccc4c3)C[C@@H]21 [11b] | 52 nM and 27 nM | 75 | – |
| CC1(C)[C@@H]2[C@H](C(=O)N[C@H](C=O)C[C@@H]3CCNC3=O)N(C(=O)CCc3cccc(F)c3)C[C@@H]21 [MI-03] | 17 nM | – | – |
